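Grown in 96-well plates, cells were treated for 48 hours with each compound at five concentrations. Insufficient inhibition: endpoint recorded as highest concentration tested. GI50: concentration for 50% inhibition of growth. TGI: concentration producing complete growth inhibition.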
How the values were obtained:
Test in all cases: NCI anticancer screen, dose series, 48 h
HOP-62 NSCLC = tested on: HOP-62 NSCLC
MDA-MB-231 breast = tested on: MDA-MB-231 breast
NCI-H23 lung = tested on: NCI-H23 lung
SK-MEL-28 melanoma = tested on: SK-MEL-28 melanoma
SW-620 colon = tested on: SW-620 colon
DLD-1 colon = tested on: DLD-1 colon
DMS 114 small cell lung = tested on: DMS 114 small cell lung
M19-MEL melanoma = tested on: M19-MEL melanoma
RXF-631 renal = tested on: RXF-631 renal
SNB-78 CNS = tested on: SNB-78 CNS
XF 498 CNS = tested on: XF 498 CNS
DMS 273 small cell lung = tested on: DMS 273 small cell lung
HOP-18 NSCLC = tested on: HOP-18 NSCLC
KM20L2 colon = tested on: KM20L2 colon

| Structure (SMILES) | TGI (HOP-62 NSCLC) | TGI (MDA-MB-231 breast) | TGI (NCI-H23 lung) | TGI (SK-MEL-28 melanoma) | TGI (SW-620 colon) | other results |
| --- | --- | --- | --- | --- | --- | --- |
| COc1ccc(Nc2ccc([N+](=O)[O-])cc2[N+](=O)[O-])cc1CN(CCCl)CCCl | 20.9 µM | 9.44 µM | 5.77 µM | 18.4 µM | 13.4 µM | GI50 (HOP-62 NSCLC): 2.97 µM; GI50 (MDA-MB-231 breast): 2.69 µM; GI50 (NCI-H23 lung): 2.04 µM; GI50 (SK-MEL-28 melanoma): 3.24 µM; GI50 (SW-620 colon): 2.11 µM |
| CCCn1c(=O)c(N2CCN(c3ccccc3)CC2)nc2sc3ccccc3c21 | > 100 µM | > 100 µM | > 100 µM | > 100 µM | > 100 µM |  |
| CC(C)(C)NC(=O)CCC1C(C(=O)NC(C)(C)C)C2(Cl)C(Cl)=C(Cl)C1(Cl)C2(Cl)Cl (centres undefined) | > 100 µM | > 100 µM | > 100 µM | > 100 µM | > 100 µM |  |
| CN(C)CCNC(=O)c1cccc2c(NC(CCC(N)=O)C(=O)O)c3ccccc3nc12 (centres undefined) | 47.8 µM | 24.7 µM | 18.4 µM | 38.1 µM | > 100 µM |  |
| CCc1ccc2c(c1)N(CC(C)CN(C)C)c1ccccc1S2 (centres undefined) | 17.8 µM | 17.3 µM | 21.8 µM | 5.45 µM | 14.6 µM |  |
| CCN(CC)C1Oc2cc3c(cc2C(c2cccc(OC)c2OC)C1C)OCO3 (centres undefined) | 30.2 µM | 35.4 µM | 35.7 µM | 50.6 µM | 77 µM |  |
| c1ccc(N=C2c3ccsc3C(=Nc3ccccc3)c3ccsc32)cc1 | 3 µM | 4.5 µM | 3.03 µM | 3.97 µM | 3.93 µM |  |
| CCOC(=O)Cn1nnc2ccc(Nc3nc4ccccc4nc3-c3ccccc3)cc21 | > 100 µM |  | > 100 µM | > 100 µM | > 100 µM |  |
| O=C(O)c1cc(CCc2cc(O)ccc2O)ccc1O | > 100 µM |  | > 100 µM | > 100 µM | > 100 µM |  |
| CC(C)(C)OC(=O)NCCCCC(N)NC(=O)c1ccccc1 (centres undefined) | > 100 µM | > 100 µM | > 100 µM | > 100 µM | > 100 µM |  |
| Cc1cc(NS(=O)(=O)c2ccc(NC(=O)c3cccc4c(Nc5ccc(S(N)(=O)=O)cc5)c5ccccc5nc34)cc2)no1 | > 100 µM |  | > 100 µM | > 100 µM |  | TGI (DLD-1 colon): > 100 µM; TGI (DMS 114 small cell lung): > 100 µM; TGI (M19-MEL melanoma): > 100 µM; TGI (RXF-631 renal): > 100 µM; TGI (SNB-78 CNS): > 100 µM; TGI (XF 498 CNS): > 100 µM |
| O=c1[nH]nc(-c2ccccc2)n1O | > 100 µM | > 100 µM | > 100 µM | > 100 µM | > 100 µM |  |
| CCCCNc1nc(NC2OCC(OC(C)=O)C(OC(C)=O)C2OC(C)=O)c(N=O)c(=O)n1C (centres undefined) | > 10 µM | > 10 µM | > 10 µM | > 10 µM | > 10 µM |  |
| C=CCC1(C)CCCN(Cc2ccccc2)C1=O (centres undefined) | > 10 µM | > 10 µM | > 10 µM | > 10 µM | > 10 µM |  |
| CC(C)/C(Cl)=N/OC(=O)Nc1ccc(Cl)c(Cl)c1 | 33.1 µM | 30.2 µM | 29.5 µM | 8.5 µM | 4.35 µM |  |
| N#Cc1nc(C#N)n(S(=O)(=O)c2ccccc2)c1NS(=O)(=O)c1ccccc1 | > 100 µM | > 100 µM | > 100 µM | > 100 µM | > 100 µM |  |

| Structure (SMILES) | TGI (HOP-62 NSCLC) | TGI (MDA-MB-231 breast) | TGI (NCI-H23 lung) | TGI (SK-MEL-28 melanoma) | TGI (SW-620 colon) | other results |
| --- | --- | --- | --- | --- | --- | --- |
| OC(c1cccnc1Cl)c1nc2ccccc2c2ccnc(Cl)c12 (centres undefined) | 15.3 µM | > 100 µM | > 100 µM | > 100 µM | > 100 µM |  |
| CC(C)(CCC(C)(C)N1OC1c1ccccc1)N1OC1c1ccccc1 (centres undefined) |  | > 100 µM | > 100 µM | > 100 µM | > 100 µM |  |
| CNNC(=NS(=O)(=O)c1cc(C#N)c(NNC)cc1S)NNC | > 10 µM |  | > 10 µM | > 10 µM | > 10 µM |  |
| NNc1nnc(-c2nnc(NN)o2)o1 | > 10 µM | > 10 µM | > 10 µM | > 10 µM | > 10 µM |  |
| Cc1cnc2c(c1C)C(=O)c1ccccc1C2=O | > 100 µM | 93.9 µM | > 100 µM | > 100 µM | > 100 µM |  |
| N#C/C(C(=S)NCc1ccccc1)=C(/N)N1CCCC1 | > 100 µM | > 100 µM | > 100 µM | > 100 µM | > 100 µM |  |
| N#CCCC1(CCC#N)CCCCCCCCC(CCC#N)(CCC#N)C(O)C1O (centres undefined) | > 100 µM |  | > 100 µM | > 100 µM | > 100 µM |  |
| CCCc1[nH]c2ccccc2c1-c1c(CCC)[nH]c2ccccc12 | 32.2 µM | 38.6 µM | 26.8 µM | 21.6 µM | 23.7 µM |  |
| COc1cc(CNc2nc3ccccc3nc2C(=O)O)cc(OC)c1OC | > 100 µM | > 100 µM | > 100 µM | > 100 µM | > 100 µM |  |
| Clc1ccc2oc(CCc3ccccc3)nc2c1 | > 100 µM | > 100 µM | > 100 µM | > 100 µM | > 100 µM |  |
| COc1cccc(/N=N/C(=NNC(=O)c2ccc(C)cc2)c2ccc(N(C)C)cc2)c1 |  | > 100 µM | > 100 µM | > 100 µM | > 100 µM |  |
| COc1cccc(C(=O)C#Cc2cnc(OC)nc2OC)c1 | 47.8 µM | 7.42 µM | 5.5 µM | 4.22 µM | 1.94 µM |  |
| COC(=O)C(Cc1c[nH]c2ccccc12)N=C1Nc2ccncc2S(=O)(=O)N1c1cccc(OC(C)C)c1 (centres undefined) | > 100 µM | > 100 µM | 85.8 µM | > 100 µM | > 100 µM |  |
| COc1ccc(C(=O)/C=C/c2ccc(OCC#N)cc2)cc1 | > 100 µM | 72.5 µM | 49.6 µM | 32.9 µM | 33.6 µM |  |
| O=C1CCCC/C1=C\c1ccc(Cl)c(Cl)c1 | > 100 µM |  | 71.3 µM | 37.7 µM | 50.7 µM | TGI (DLD-1 colon): 61.6 µM; TGI (DMS 114 small cell lung): 41.1 µM; TGI (DMS 273 small cell lung): 38.5 µM; TGI (HOP-18 NSCLC): 51.7 µM; TGI (KM20L2 colon): 40.9 µM; TGI (M19-MEL melanoma): 40.3 µM; TGI (SNB-78 CNS): 52.7 µM |
